In PubChem BioAssay (NCI):
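96-well plates; 48 h exposure; 5 concentrations. Endpoints by linear interpolation between flanking doses. Not reached: highest tested concentration assigned. GI50 = concentration required for 50% inhibition of growth. TGI is the concentration that stops growth completely.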

How the values were obtained:
Test in all cases: growth of human tumour cells (NCI), 48 h
[1] = test system: A498 renal
[2] = test system: SF-295 CNS
[3] = test system: MDA-MB-435
[4] = test system: HOP-62 NSCLC
[5] = test system: NCI-H23 lung
[6] = test system: 786-0 renal
[7] = test system: PC-3 prostate
[8] = test system: SK-MEL-2 melanoma

Structure (SMILES)	GI50 [1] [µM]	TGI [1] [µM]	GI50 [2] [µM]	TGI [2] [µM]	GI50 [3] [µM]	GI50 [4] [µM]	TGI [4] [µM]	GI50 [5] [µM]	TGI [5] [µM]	GI50 [6] [µM]	TGI [6] [µM]	GI50 [7] [µM]	TGI [7] [µM]	GI50 [8] [µM]	TGI [8] [µM]	TGI [3] [µM]
CCOC(=O)N[C@H]1CCc2c(Br)c(OC)c(OC)c(OC)c2-c2ccc(SC)c(=O)cc21	< 0.01	< 0.0115	< 0.01	3.79	< 0.01	0.0232	41.2	< 0.01	24	0.0318	25.1	< 0.01	> 44.5			
O=S(=O)(NCCNc1cc(-c2cn(-c3ccccc3)nc2-c2cccc(O)c2)ccn1)c1ccc(Cl)cc1	2.33	9.52			2.86	2.87	13.7	3.07	13.4	2.54	9.78	2.45	12	2.4	5.71	10.1
Cc1cc(C)n(C(=O)c2nn(-c3ccc(Cl)cc3)cc2O)n1	2.9	8.77	1.81	6.73	3.94	5.21	79.4	3.31	> 100	9.64	> 100	7.05	> 100			> 100
C#Cc1cccc(Oc2ccc(NC(=O)CCl)cc2)c1			> 82.5	> 82.5	> 82.5	> 82.5	> 82.5	48.1	> 82.5	> 82.5	> 82.5	> 82.5	> 82.5	> 82.5	> 82.5	> 82.5
CC1SC(c2c(Cl)cccc2Cl)N(NC(=O)C(O)c2ccccc2)C1=O (centres undefined)	75.7	> 100	> 100	> 100	43.2	89.3	> 100			> 100	> 100	39.7	> 100	> 100	> 100	> 100
COc1cc(-c2cc(/C=C3\C(=O)Nc4ccccc43)[nH]n2)cc(OC)c1OC	2.5	7.71	2.84	11.6	2.38	3.2	14.9	2.78	8.95	5.1	20.2	2.14	10	2.27	5.57	6.25
O=C(Nc1ccc(Cl)cc1)c1cc(S(=O)(=O)Nc2nnc(-c3ccccc3)c(-c3ccccc3)n2)c(SCc2ccccc2)cc1Cl	20.4	77.9	19	41.5	21.2	26.6	> 58.5	24.6	53.7	23.6	> 57.8	39.8	> 100	41.3	> 100	61.5
COc1ccc(-c2nnc(N3CCN(C(=O)CN4CCN(c5ccc(Cl)cc5)CC4)CC3)nc2-c2ccc(OC)cc2)cc1	27.7	72.2	49.4	> 100	66.1	26.2	81.1	24.4	> 100	17.5	69.8	9.58	> 100	35.5	> 100	> 100
O=C1c2ccn(CCCCN3CCCCC3)c2C(=O)c2c1c(O)c1ccccc1c2O	15.3	35.1	13.2	45.4	2.19	13.4	35.4	23.1	> 48.3	5.28		4.76	18.1	> 100	> 100	5.27
NCCP(=O)(O)O		> 100		> 100			> 100		> 100		> 100		> 100		> 100	> 100
C[C@]12C3CC[C@@]4(CO)C[C@]3(CCC1[C@](C)(C(=O)O)CC[C@@H]2O)CC4=O (some centres undefined)	> 100	> 100	> 100	> 100	> 100	> 100	> 100	> 100	> 100	> 100	> 100	> 100	> 100	> 100	> 100	> 100
C=C1CC2(CCCC3(CC(=C)C(=O)O3)C2(C)C)OC1=O (centres undefined)		41.9		33.8			30.8		12.1		11.4		21.1		27.7	10.1
NC(=S)N/N=C\c1nccc2c(N)cccc12	0.172	1.02	0.309	3.81	0.379	0.352	> 22	0.224	> 94.8	0.163	0.737	0.452	> 100	2.79	> 100	> 100
C1=C(c2ccccc2)SC=C(c2ccccc2)S1		> 100		> 100			> 100		> 100		> 100		> 100			32.2
COc1cc(C2=NN(c3ccc(S(N)(=O)=O)cc3)C(c3ccc(Cl)cc3)C2)cc(OC)c1OC (centres undefined)	1.93	7.68	2.53	6.55	3.74	5.8	> 100	5.72	> 100	6.43	> 100	3.05	> 100	3.35	14.1	> 100
O=c1c2ccccc2nc(-c2ccccc2)n1O		> 100		> 100			37.4		> 100		> 100		> 100		> 100	> 100
Oc1c(I)cc(-c2nc3ccccc3s2)cc1CN(Cc1ccccn1)Cc1ccccn1	0.484	4.81	0.35	> 100	0.428	0.332	68.3	0.866	> 100	0.347	2.62	0.308	> 100	0.362	17.8	14.3

Structure (SMILES)	GI50 [1] [µM]	TGI [1] [µM]	GI50 [2] [µM]	TGI [2] [µM]	GI50 [3] [µM]	GI50 [4] [µM]	TGI [4] [µM]	GI50 [5] [µM]	TGI [5] [µM]	GI50 [6] [µM]	TGI [6] [µM]	GI50 [7] [µM]	TGI [7] [µM]	GI50 [8] [µM]	TGI [8] [µM]	TGI [3] [µM]
COc1ccc(CC(NC(=O)[C@H](C)NC(=O)CN2CCOCC2)C(=O)N[C@@H](Cc2ccccc2)C(=O)[C@@]2(C)CO2)cc1 (some centres undefined)	0.224	0.893	0.185	0.587	0.069	0.191	0.453	0.196	0.695	0.364	1.76	0.229	0.631	0.264	0.974	0.484
COc1cc2cc(Oc3ccc(NC(=O)Nc4ccc(Cl)c(C(F)(F)F)c4)cc3)c(C)nc2cc1OC	0.754	3.32	0.899	2.91	1.03	1.3	5.32	0.991	3.79	1.17	4.96	0.781	2.96	0.799	1.94	4.71
C[C@@H](Oc1ccc2[nH]nc(/C=C/c3cnn(CCO)c3)c2c1)c1c(Cl)cncc1Cl	< 0.01	0.274	0.0785	23.7	0.866	0.108	3.06	0.0796	2.18	0.253	2.38	1.41	7.4	1.37	3.08	3.12
[C-]#[N+][C@]12C(=O)[C@H](CCC1(C)C)C(C)(C)[C@H]1C(=O)N(C)c3cccc2c31	0.81	74.2			24.7	9.6	> 100			> 100	> 100	3.27	> 100	30.6	> 100	> 100
C=CCC(N[C@H](CO)c1ccccc1)c1cn(S(=O)(=O)c2ccc(C)cc2)c2ccccc12 (some centres undefined)			8.19	34.8	19	16.8	33.5	20.3	43.5	> 100	> 100	17.8	77.1	32.2	> 100	46.8
OCC#Cc1ccccc1C#Cc1ccc(C#Cc2ccccc2C#CCO)s1			15.1	29.2	15.1	22.6	53.7	18.3	33.4	19.3	37.7	14.8	28.7	14.6	35.8	29.2
COc1ccc(/C=C/C(=O)c2cc3c(N)c(C(=O)Nc4ccccc4C)sc3nc2C)cc1	0.197	2.64	0.497	> 50		0.779	> 50	0.969	> 50	0.489	> 50	0.285	> 50	0.387	> 50	
CCCCCCCCCCCCCC(=O)C(C)N (centres undefined)			2.88	10	13.8	4.76	16.9	6.94	21.9	12.4	26.2	2.64	6.05	16	31.2	28
O=[N+]([O-])c1ccc(/C=C(/c2ccc([N+](=O)[O-])o2)S(=O)(=O)c2ccccc2)o1				34.2			38.3		38		14.7		30.1		35.8	29
N#C/C(N)=C(\C#N)N=Cc1csc2ccccc12			51.5	> 100	36.2	15	34.6	11.5	51.2	34.2	> 100	47.3	> 100	> 100	> 100	> 100
CCCCCCNc1nc(N2CCOCC2)c2[nH]c(NCCCCCC)nc2n1	1.11	2.31	1.65	3.21		1.67	3.27	1.35	2.63	1.8	3.19	1.68	3.54	1.89	3.51	
O=C(CNc1ncco1)Nc1ccc(S(=O)(=O)c2ccc(NC(=O)CNc3ncco3)cc2)cc1	21.8	62.7			2.08	2.07	4.09	2.46	9.51	3.95	18.3	2.49	8.32	2.49	5.65	7.26
c1ccc2cc(Cn3c[n+](Cc4ccc5ccccc5c4)c4ccccc43)ccc2c1	1.08	2.5			1.37					1.52	3.09	1.1	2.43	1.64	3.14	2.74
CO[C@@]12C[C@H]3[C@@H]([C@@H](O)[C@@H](OC(=O)/C=C/c4ccccc4)[C@@]4(O)C(C)(C)CCC[C@]34C)[C@@H](C)C1=CC(=O)O2	11.3	26.3	3.84	44.1	4.85			13.5	42.2	24.8	> 100	5.13	29.2	27	> 100	28.2
COC(=O)OCc1ccc2c(c1)C(=O)c1c-2n(CCCBr)c(=O)c2cc([N+](=O)[O-])ccc12	57.6	> 100	31.7	> 100	> 100	27.7	> 100			31.7	92	> 100	> 100	> 100	> 100	> 100
O=C(O)c1cc(Cc2ccc(O)c(C(=O)O)c2)ccc1O (tested in a mixture with another compound)	5.68	21.9	0.592	2.9	4.2	10.9	26.6	5.31	20	9.64	25.2	3.58	19.2			16
